Measurements reported in PMC8274517, “Diaryl azo derivatives as anti-diabetic and antimicrobial agents: synthesis, in vitro, kinetic and docking studies” (Journal of Enzyme Inhibition and Medicinal Chemistry, 2021).
Values after ≈ are worked out from the molar mass of the structure shown.

How the values were obtained:
P. aeruginosa (DR) [1] = assay: Antibiofilm assay (crystal violet); type: cell-based; details: 0.5 mg/mL; for inhibition at 500 µg/mL: Pseudomonas aeruginosa, read-out: biofilm inhibition (anti-biofilm potency)
Protocol: (§1) The antibiofilm activity of the synthesised azo derivatives was assessed by microtitre plate-based crystal violet method[44] against respective bacterial strains i.e. gram-positive (S. aureus, S. aureus (DR)) and gram-negative (P. aeruginosa, P. aeruginosa (DR)). In brief, 10 µL bacterial suspension, 100 µL trypticase soy broth and 10 µL (10 mg/mL) of test compounds were added in the wells in duplicates and incubated at 37 °C overnight. Ampicillin and moxifloxacin were used as positive controls. After the aspiration of planktonic cells, the biofilm was fixed with 99% methanol. The wells were then washed with 0.1 M sterile PBS (pH = 6.9) thrice and air-dried. Then, 200 µL of crystal violet solution (2%) was added to all wells. After 15 min, the excess of the crystal violet dye was removed and the wells were washed again with PBS. Then, the cell-bound crystal violet was dissolved in 33% acetic acid. The biofilm growth was quantified in terms of OD575 nm using an ELISA plate reader and biofilm hydrolysis was calculated by % inhibition formula.

P. aeruginosa (DS) [2] = assay: Antibiofilm assay (crystal violet); type: cell-based; details: 0.5 mg/mL
Protocol: as §1

S. aureus (DS) [3] = assay: Antibacterial activity, minimum inhibitory concentration; type: cell-based; parameters: key: R: resistant; S: sensitive
Protocol: (§2) The prepared azo derivatives were screened for their antibacterial activity against six bacterial strains obtained from hospital isolates i.e. gram positive (S. aureus, S. aureus (DR)) and gram-negative (E. coli, P. aeruginosa, P. aeruginosa (DR), P. vulgaris). All the strains were confirmed by biochemical identification and drug susceptibility methods. The antibacterial evaluation was done by agar disc diffusion method[39]^,[40] and MIC was determined. In summary, a 48-h old inoculum having ∼0.48 OD600, of the above-mentioned bacterial strains was spread on the solidified trypticase soy agar media and Whatman no. 1 filter paper discs (5 mm in diameter) soaked with the title compounds (10 µL/disc of 10 mg/mL) were placed on the plates. Ampicillin and moxifloxacin were used as positive controls and DMSO as negative control respectively.

P. aeruginosa (DR) [4] = assay: as above; type: cell-based; parameters: key: R: resistant; S: sensitive
Protocol: as §2

P. aeruginosa (DS) [5] = assay: as above; type: cell-based; parameters: key: R: resistant; S: sensitive
Protocol: as §2

S. aureus (DR) [6] = assay: as above; type: cell-based; parameters: key: R: resistant; S: sensitive
Protocol: as §2

E. coli = assay: as above; type: cell-based; parameters: key: R: resistant; S: sensitive
Protocol: as §2

P. vulgaris = assay: as above; type: cell-based; parameters: key: R: resistant; S: sensitive
Protocol: as §2

α-glucosidase = assay: In vitro α-glucosidase inhibition assay (pNPG substrate); type: biochemical, Saccharomyces Cerevisiae; details: for IC50: means ± SEM of triplicate
Protocol: The α-glucosidase inhibition assay was performed as described previously. In summary, the stock solution of the enzyme from Saccharomyces Cerevisiae (0.2 U/mL) was prepared in 0.05 M sodium phosphate buffer pH 6.8. […] After incubation, 10 µL of the substrate, p-nitrophenyl α-D-glucopyranoside (pNPG, 5 mM solution in 0.05 M phosphate buffer) was added to the aboveprepared mixture and incubated again under the same experimental conditions. The reaction was stopped with the addition of 0.1 M Na2CO3 and OD405 was taken by a 96-well ELISA reader. The experiment was performed in triplicate.

S. aureus (DS) [7] = assay: Antibiofilm assay (crystal violet); type: cell-based; details: 0.5 mg/mL
Protocol: as §1

S. aureus (DR) [8] = assay: Antibiofilm assay (crystal violet); type: cell-based; details: 0.5 mg/mL
Protocol: as §1

Compound	melting point [°C]	inhibition at 500 µg/mL (P. aeruginosa (DR) [1]) [%]	biofilm inhibition (P. aeruginosa (DS) [2])	Minimum inhibitory concentration: sensitive/resistant (S. aureus (DS) [3]; 125 µg/200 µL)	Minimum inhibitory concentration: sensitive/resistant (S. aureus (DS) [3]; 250 µg/200 µL)	Minimum inhibitory concentration: sensitive/resistant (P. aeruginosa (DR) [4]; 125 µg/200 µL)	Minimum inhibitory concentration: sensitive/resistant (P. aeruginosa (DR) [4]; 250 µg/200 µL)	Minimum inhibitory concentration: sensitive/resistant (P. aeruginosa (DS) [5]; 125 µg/200 µL)	Minimum inhibitory concentration: sensitive/resistant (P. aeruginosa (DS) [5]; 250 µg/200 µL)	Minimum inhibitory concentration: sensitive/resistant (S. aureus (DR) [6]; 125 µg/200 µL)	Minimum inhibitory concentration: sensitive/resistant (S. aureus (DR) [6]; 250 µg/200 µL)	Minimum inhibitory concentration: sensitive/resistant (E. coli; 125 µg/200 µL)	Minimum inhibitory concentration: sensitive/resistant (E. coli; 250 µg/200 µL)	Minimum inhibitory concentration: sensitive/resistant (P. vulgaris; 125 µg/200 µL)	Minimum inhibitory concentration: sensitive/resistant (P. vulgaris; 250 µg/200 µL)	% Inhibition (α-glucosidase; 15.62 µg/mL) [%]	% Inhibition (α-glucosidase; 31.2 µg/mL) [%]	% Inhibition (α-glucosidase; 125 µg/mL) [%]	% Inhibition (α-glucosidase; 250 µg/mL) [%]	IC50 (α-glucosidase) [mg/L]	further results
Oc1ccc(N=Nc2cccnc2Cl)c(O)c1 [TR-7, 4-((2-chloropyridin-3-yl)diazenyl)benzene-1,3-diol]	187 to 189	55	not found active	R	R	S	S	R	R	R	R	R	R	R	R	34	52	77	87	29.7 ± 2.8 (≈ 119 µM)	–
Oc1ccc(N=Nc2cccnc2Cl)c2ccccc12 [TR-8, 4-((2-chloropyridin-3-yl)diazenyl)naphthalen-1-ol]	170 to 175	80	–	S	S	R	R	R	S	R	R	R	R	R	R	29	45	75	98	36.7 ± 3.1 (≈ 129 µM)	biofilm inhibition (S. aureus (DS) [7]): greater than 70%; biofilm hydrolysis efficiency (S. aureus (DR) [8]): drastically decreased
(E)-1-(p-tolyldiazenyl)naphthalen-2-ol [TR-5]	–	–	–	R	R	S	S	R	S	S	S	S	S	R	R	14	22	49	56	153.4 ± 11.5	biofilm inhibition (anti-biofilm potency) (P. aeruginosa (DR) [1]): 80%
penicillin [reference compound]	–	–	60%	–	–	–	–	–	–	–	–	–	–	–	–	–	–	–	–	–	biofilm inhibition (S. aureus (DS) [7]): 65%
